According to US20130172246A1, “INSULIN GLARGINE VERSUS METFORMIN FOR THE FIRST-LINE TREATMENT OF EARLY TYPE-2 DIABETES” (priority 2011, published 2013):

System: type 2 diabetes patients
Assay: Laboratory analyses in the clinical trial: HbA1c, plasma glucose, lipids, hsCRP
Assay type: in vivo, human
Details: for HbA1c level at end of study: after 36 weeks of treatment, GLA vs. MET n.s.; for HbA1c level at start of study: baseline value of the 'x to y' pair; for Triglycerides - change / HDL - change / HbA1c - change / LDL - change / Plasma glucose - change, 2 h after test meal / Plasma glucose - change, Fasting / Total chol. - change / hsCRP - change / Triglycerides - visit 8 / HDL - visit 8 / HbA1c - visit 8 / LDL - visit 8 / Plasma glucose - visit 8, 2 h after test meal / Plasma glucose - visit 8, Fasting / Total chol. - visit 8 / hsCRP - 8th visit: per protocol, mean (SD); for Triglycerides - change / HDL - change / HbA1c - change / LDL - change / Plasma glucose - change, 2 h after test meal / Plasma glucose - change, Fasting / Total chol. - change / hsCRP - change: change visit 1 to visit 8; for HDL - change / HbA1c - change / LDL - change / Plasma glucose - change, 2 h after test meal / Plasma glucose - change, Fasting / Total chol. - change / hsCRP - change / HDL - visit 8 / HbA1c - visit 8 / LDL - visit 8 / Plasma glucose - visit 8, 2 h after test meal / Plasma glucose - visit 8, Fasting / Total chol. - visit 8 / hsCRP - 8th visit: unit as in Table 4; for Triglycerides - visit 8 / HDL - visit 8 / HbA1c - visit 8 / LDL - visit 8 / Plasma glucose - visit 8, 2 h after test meal / Plasma glucose - visit 8, Fasting / Total chol. - visit 8 / hsCRP - 8th visit: week 36; for reduction in the FPG level (Δ): start to end of study (36 weeks), GLA vs. MET p<0.001
Method: Test meal: On the morning of the 2nd day of the CGM, there is a standardized test meal in the trial center. This test meal (TM) consists of 95 g of whole-wheat bread, 20 g of margarine, 25 g of fruit preserves, 25 g of cheese, 200 ml of orange juice, 200 ml of milk mix with banana, strawberry or cocoa with a total of 560 Kcal. Blood is taken from the patient prior to the TM (after night-time fasting period of at least 8 hours). […] From the 1st bite, the time is measured, and after 2 h have elapsed, a 2nd blood collection is performed. During the TM and during the two hours thereafter, the patient should move as little as possible so as not to falsify the monitoring.
Fasting blood is collected between 7 and 9 o'clock in the morning when the patient turns up at the center.
Laboratory analyses: The blood samples for the clinical laboratory tests are analyzed in the central laboratory and the local laboratories according to standardized conditions. The central laboratory and the local laboratories provide on request corresponding documentation (e.g., normal value tables, round-robin test certificates in accordance with RiLiBÄK (Guidelines of the German Medical Association)) for the trial master file. The central laboratory is responsible for the collection, transport and analysis of the blood samples and instructs the trial center on sample management.
The patients were treated with either metformin (MET, 1000 mg b.i.d. (n=3)) or insulin glargine (GLA) q.d. just before bedtime (n=3). […] At the start and end of the study, the HbA1c level and the plasma glucose, proinsulin and C-peptide concentrations were determined. […] All the patients received a standardized test meal on the second day of the continuous glucose monitoring for comparison of the interindividual postprandial (pp) glucose excursions.

Molecule | HbA1c level at end of study [%] | HbA1c level at start of study [%] | Triglycerides - change | HDL - change | HbA1c - change | LDL - change | Plasma glucose - change, 2 h after test meal | Plasma glucose - change, Fasting | Total chol. - change | hsCRP - change | Triglycerides - visit 8 | HDL - visit 8 | HbA1c - visit 8 | LDL - visit 8 | Plasma glucose - visit 8, 2 h after test meal | Plasma glucose - visit 8, Fasting | Total chol. - visit 8 | hsCRP - 8th visit | reduction in the FPG level (Δ) [mmol/L] | control of the fasting glucose level and of the overall glycemic situation (early treatment, compared to standard treatment with MET)
CN(C)C(=N)N=C(N)N [Metformin] | 6.3 | 6.9 | −0.2 (1.1) mmol/l | 0.1 (0.2) mmol/l | −0.6 (0.4) % | −0.03 (0.6) mmol/l | −1.6 (2.5) mmol/l | −1.4 (1.5) mmol/l | −0.02 (0.7) mmol/l | −0.2 (2.2) mg/l | 1.9 (0.8) mmol/l | 1.3 (0.4) mmol/l | 6.3 (0.3) % | 3.1 (0.9) mmol/l | 8.4 (2.1) mmol/l | 7.2 (1.0) mmol/l | 5.3 (1.0) mmol/l | 3.1 (5.2) mg/l | 1.4 ± 1.5 | 
Insulin glargine | 6.4 | 7.2 | −0.2 (1.8) mmol/l | 0.1 (0.2) mmol/l | −0.8 (0.7) % | −0.1 (0.7) mmol/l | −2.8 (3.2) mmol/l | −3.1 (2.5) mmol/l | −0.04 (0.8) mmol/l | 0.1 (3.0) mg/l | 2.2 (2.0) mmol/l | 1.3 (0.3) mmol/l | 6.4 (0.4) % | 3.1 (0.8) mmol/l | 8.3 (2.5) mmol/l | 6.1 (1.1) mmol/l | 5.2 (1.0) mmol/l | 3.1 (2.9) mg/l | 3.1 ± 2.5 | more effective control
